Read-outs that look alike come from different tables or passages of the source.
How the values were obtained:
CYP2C9 [1] = molecular target: T1, CYP2C9 (Homo sapiens, UniProt P11712); assay: Luminescence titration of solubilized CYP2C9 with type I and type II ligands
P450cam = molecular target: T2, P450cam (Pseudomonas putida, UniProt P00183); details: read-out: KS (literature values); depending on the stereoisomer used; cited from earlier work
T2 sequence (P00183 1-415): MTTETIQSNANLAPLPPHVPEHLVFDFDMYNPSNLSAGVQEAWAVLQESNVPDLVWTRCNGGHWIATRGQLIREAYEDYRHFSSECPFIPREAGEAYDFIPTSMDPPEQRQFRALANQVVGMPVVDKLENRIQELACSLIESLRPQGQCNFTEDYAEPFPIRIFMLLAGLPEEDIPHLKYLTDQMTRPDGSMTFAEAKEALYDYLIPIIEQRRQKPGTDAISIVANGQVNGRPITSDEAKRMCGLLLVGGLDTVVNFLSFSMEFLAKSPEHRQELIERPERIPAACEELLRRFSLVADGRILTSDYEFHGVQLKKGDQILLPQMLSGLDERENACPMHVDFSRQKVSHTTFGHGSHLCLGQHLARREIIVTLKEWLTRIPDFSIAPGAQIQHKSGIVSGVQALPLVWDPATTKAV

CYP2C9 [2] = molecular target: T1, CYP2C9; details: read-out: KS (reported value); ref Hutzler et al. 31; cited from earlier work
CYP3A4 = CYP3A4 (Homo sapiens, UniProt P08684); assay: Luminescence titration of solubilized CYP3A4 with type I and type II ligands
Sequence of CYP3A4 (P08684 whole entry): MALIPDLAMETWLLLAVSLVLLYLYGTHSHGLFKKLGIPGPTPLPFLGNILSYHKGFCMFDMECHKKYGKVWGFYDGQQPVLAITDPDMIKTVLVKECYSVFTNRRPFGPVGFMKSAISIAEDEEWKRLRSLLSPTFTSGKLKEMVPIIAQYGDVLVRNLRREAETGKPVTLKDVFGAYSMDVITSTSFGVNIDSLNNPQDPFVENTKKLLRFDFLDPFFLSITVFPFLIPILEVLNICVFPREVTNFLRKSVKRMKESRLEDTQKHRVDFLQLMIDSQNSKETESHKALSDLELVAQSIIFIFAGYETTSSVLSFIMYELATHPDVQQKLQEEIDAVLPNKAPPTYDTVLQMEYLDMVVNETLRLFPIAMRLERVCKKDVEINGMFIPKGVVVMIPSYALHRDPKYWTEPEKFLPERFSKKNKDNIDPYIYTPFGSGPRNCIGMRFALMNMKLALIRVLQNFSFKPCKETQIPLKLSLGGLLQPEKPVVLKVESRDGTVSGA

T1 sequence (P11712 whole entry): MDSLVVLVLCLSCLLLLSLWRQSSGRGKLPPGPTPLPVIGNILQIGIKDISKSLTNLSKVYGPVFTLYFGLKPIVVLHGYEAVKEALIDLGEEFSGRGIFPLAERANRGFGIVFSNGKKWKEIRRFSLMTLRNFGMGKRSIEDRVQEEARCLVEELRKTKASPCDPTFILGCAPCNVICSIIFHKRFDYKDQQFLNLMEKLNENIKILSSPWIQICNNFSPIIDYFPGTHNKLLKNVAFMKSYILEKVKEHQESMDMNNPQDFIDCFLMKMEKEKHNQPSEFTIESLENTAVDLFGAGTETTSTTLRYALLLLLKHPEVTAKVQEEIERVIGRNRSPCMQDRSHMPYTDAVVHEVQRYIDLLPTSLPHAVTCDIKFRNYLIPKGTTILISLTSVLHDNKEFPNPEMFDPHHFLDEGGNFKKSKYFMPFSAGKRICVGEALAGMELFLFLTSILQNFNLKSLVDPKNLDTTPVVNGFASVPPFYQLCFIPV

Which Kd (CYP2C9 [1]) does the source give for `O=C(Nc1ccc2ccccc2c1)c1cc(-c2ccncc2)nc2ccccc12` [QC, N-(naphthalene-2-yl)-2-(pyridine-4-yl)quinoline-4-carboxamide] here?
Its Kd is 0.11 ± 0.06 µM.

For `CC12CCC(CC1=O)C2(C)C` (centres unmarked) [camphor], which Kd (P450cam) is on record?
Its Kd is 1.6 to 2.6 µM.

Which Kd (CYP2C9 [2]) does the source give for `CC(C(=O)O)c1ccc(-c2ccccc2)c(F)c1` (centres unmarked) [flurbiprofen] here?
The Kd was 14.1 µM.

And the Kd (CYP2C9 [1])?
Its Kd is 20.2 ± 1.1 µM.

For `C[C@]12CC[C@H]3[C@@H](CCC4=CC(=O)CC[C@@]43C)[C@@H]1CC[C@@H]2O` [testosterone], which Kd (CYP3A4) is on record?
Its Kd is 30.5 ± 6.5 µM.
